Results taken from a melting point compilation (Tetko et al.; mined from patent text by program, amines drawn as free bases though some values may be those of a salt).

SMILES | melting point
CCOC(=O)/C(=N\OCCN=[N+]=[N-])c1csc(N)n1 | 123 to 124 °C
O=C(Cn1c(-c2cccc(Cl)c2)nc2cccnc21)N1CCCCC1 | 140 to 150 °C
COc1cc(C(C)(C)O)c(OCc2ccccc2)cc1N1CCN(Cc2ccccc2)CC1 | 94 to 96 °C
[N-]=[N+]=Nc1cc(=O)oc2ccccc12 | 159 to 160 °C
CNC(=O)[C@H](Cc1ccc(OC)cc1)NC(=O)[C@@H](N)CC(C)C | 128 to 132 °C
COC(=O)CC(=O)Nc1ccc(C2=NNC(=O)CC2C)cc1 (stereo not drawn) | 228 to 230 °C
CC(C)C(NC(=O)OC(C)(C)C)C(=O)NC(C(=O)OCC1OC(n2cc(C=CBr)c(=O)[nH]c2=O)CC1Cl)C(C)C (stereo not drawn) | 102 to 103 °C
CNC(=NC#N)NCCCSc1nccc(NC(N)=NCC(F)(F)F)n1 | 159 to 160 °C
CCOC(=O)c1ccc(OCCCCCCc2cc(C)no2)cc1 | 51 °C
C=CCOc1ccc(Nc2ccn(-c3ccccc3)n2)cc1 | 80 to 81 °C
Cc1nn(C)c2c1N(C(=O)CN1CCCCC1)c1ccccc1NC2=O | 156 to 158 °C
CON(C)C(=O)Nc1c(C(=O)c2cc(C)ccn2)[nH]c2cc(Cl)ccc12 | 199 to 200 °C
Cc1nc2ccccc2n2cnc(-c3noc(C4CC4)n3)c12 | 165 to 167 °C
COc1ccc(-c2c(Cl)c(Cn3cnc4ccccc43)nc3sc4c(c23)CCSC4)cc1 | 201 to 203 °C
O=C(CCl)NCc1cc2c(c(Br)c1O)CCCC2=O | 201 to 203 °C
CCOCc1nc2c(N)nc3cc(N4CCCC4=O)ccc3c2n1CC(C)(C)O | 200 to 202 °C
CCOC(=O)N[C@@H]1Cc2ccccc2[C@H]1Cl (relative stereo) | 82 to 84 °C
CCCCCCCCCCCCCCCCOc1cccc(O)c1C | 53 to 54 °C
Cc1cc(O)c(S(=O)Cc2ccc(Cl)c(Cl)c2)c(=O)o1 (stereo not drawn) | 144 to 146 °C
CCOC(=O)C1Cc2cc(OC)c(OC)cc2C(c2ccccc2)N1C(=O)CNC(=O)OC(C)(C)C (stereo not drawn) | 166 to 167 °C
N#Cc1cnn(-c2c(Cl)cc(SC(F)(F)F)cc2Cl)c1N | 185 to 187 °C
COC(=O)C(CCON1C(=O)c2ccccc2C1=O)NC(=O)Cc1ccccc1 (stereo not drawn) | 138 to 139 °C
Nc1cc(F)c(N2CCOCC2)cc1Cl | 89.5 °C
CN(C(=O)c1ccc(Cl)c(Cl)c1)c1ccccc1CCC(=O)O | 149 to 150 °C
CC(=O)NCC1CN(c2ccc(N3CCC(n4cc(C5(C)CO5)nn4)CC3)c(F)c2)C(=O)O1 (stereo not drawn) | 158 to 160 °C
CCOC(=O)N(c1ccccc1N=NC(NC(=O)CCl)(C(=O)OCC)C(=O)OCC)c1cccc(C)c1C | 120 to 122 °C

SMILES | melting point
Cc1ccc(S(=O)(=O)NC(CC(N)=O)C(=O)O)cc1 (stereo not drawn) | 198 to 200 °C
Cc1ccc2c3c(ccc2n1)OCC(CN1CCC(C#N)(c2ccccc2)CC1)O3 (stereo not drawn) | 185 to 187 °C
O=C1COc2cc(OCCCCl)ccc2N1 | 95 °C
O=C(O)c1cccc(N2C(=O)c3ccc(C(=O)O)cc3C2=O)c1 | > 380 °C
N#CCOc1c(Br)cc(Br)cc1C=O | 125 to 130 °C
Cc1cc([N+](=O)[O-])cc(C)c1Cl | 101 to 105 °C
Nc1nc2cc(-c3cccnc3)ccc2c2c1nc(CO)n2CC1CCOCC1 | 260 to 262 °C
O=C(Cl)C=C(c1ccccc1)c1ccc([N+](=O)[O-])cc1 | 117 to 120 °C
CC(=O)Nc1ccc2c(c1)cc(C(=O)c1ccc(C)cc1)n2C | 211 to 213 °C
CN(C)c1ncc(-c2cccc(N)c2)cn1 | 116 to 117 °C
CC(C)(C)OC(=O)N1CCC(C(=O)Nc2ccccc2Oc2ccc(Cl)cc2Cl)CC1 | 120 to 121 °C
O=CNCC1CN(c2c(F)cc3c(=O)c(C(=O)O)cn(-c4ccc(F)cc4F)c3c2F)CCO1 (stereo not drawn) | 230 to 233 °C
O=C1CCCN1C(=O)Oc1cccc(Cl)c1 | 88 to 89 °C
CSc1ccc(-c2coc3ccc(-c4nnc(C)o4)cc23)cc1C | 185 to 186 °C
Cn1cc2c(C=O)c(Br)ccc2n1 | 137 to 140 °C
CCOC(=O)c1ccccc1SC1C(=O)N(c2c(Cl)cc(Cl)cc2Cl)N=C1OC (stereo not drawn) | 185 to 187 °C
COC(=O)c1ccc(C2C(C(=O)c3ccc(OC)cc3)=C(O)C(=O)N2c2nnc(C)s2)cc1 (stereo not drawn) | 255 to 257 °C
COC(=O)Nc1cccc(CC(C)N)c1 (stereo not drawn) | 93 to 95 °C
CCCCCCCCCCCCCCCCCCOc1ccc(OCc2ccccc2)c(C(=O)N(CC(=O)OCC)CC(=O)OCC)c1 | 61 to 62 °C
Cc1cc(-c2cccc(C3=Nc4ccc(-c5ccc(F)cc5)cc4NC(=O)C3)c2)on1 | > 250 °C
Nc1ncc(C#Cc2ccc(Cl)cc2)c(NCCO)n1 | 197 to 200 °C
CC(C)(C)c1ccc(C#N)cc1N | 94.5 to 95 °C
COc1cc(NC(=O)OC(C)(C)C)c([N+](=O)[O-])cc1-c1ccc(F)cc1 | 250 °C
COc1ccc2[nH]nc(N3CCN(C)CC3)c2c1 | 158 to 160 °C
CCCn1c(=O)c2nc(CC(C)c3ccccc3)[nH]c2n(CCC)c1=O (stereo not drawn) | 136 to 137 °C
Clc1nc(Cl)c2c(n1)CCCS2 | 110 °C

SMILES | melting point
CN(C)C(=O)c1cc(=O)c2ccsc2s1 | 126 °C
CC1(C)COP(=O)(Cc2ccc(N)cc2)OC1 | 152 to 153 °C
COC(=O)Nc1nc2cnc3cccnc3c2n1CC(C)C | 195 to 197 °C
CCOC(=O)C(S)CC(=O)c1ccc(Oc2ccc(Cl)cc2)cc1 (stereo not drawn) | 75.5 to 76.5 °C
Cc1sc(C(F)(F)F)nc1O | 108 to 110 °C
Cc1ccc(N=NN2C(C)(C)CC(O)CC2(C)C)cc1 | 85 to 86 °C
CC(C)(O)CNC(=O)c1ccc(-c2ccc(C(CC3CCOCC3)c3ccc(S(=O)(=O)C4CC4)cc3)[nH]2)nc1 (stereo not drawn) | 126 to 128 °C
CN1Cc2cc(F)ccc2-n2c(c(C#CC(C)(O)C3CC3)[nH]c2=O)C1 (stereo not drawn) | 191 to 192 °C
O=C(CNC(=O)c1ccc(F)cc1)c1cccnc1 | 164 to 166 °C
COC1=CC(=O)N([C@@H]2c3cc(C#N)ccc3OC(C)(C)[C@H]2O)C1 (relative stereo) | 225 °C
Cc1ccn(-c2ccc(C=O)cc2)n1 | 96 to 98 °C
COc1ccc(NCCCN)c2c1C(=O)c1ccccc1C2=O | 108 to 110 °C
O=C(OC(=O)c1ccc([N+](=O)[O-])cc1S(=O)(=O)O)c1ccc([N+](=O)[O-])cc1S(=O)(=O)O | 110 to 116 °C
CCOC(=O)C(=O)N(CCN=[N+]=[N-])N=Cc1ccccc1 | 59 to 61 °C
CN1CCC2(CC1)Nc1ccccc1S2 | 135 to 140 °C
Cc1ccc(C#CC2CCC3C4CCC5CC(O)CCC5(C)C4CCC23C)cc1 (stereo not drawn) | 178 to 180 °C
NC(=O)c1cc(-c2ccc(F)cc2)sc1N | 170 to 171 °C
CCc1nc(N)nc(N)c1-c1ccc(N(C)Cc2ccc(C(=O)NC)cc2)c([N+](=O)[O-])c1 | 235 to 237 °C
O=C(Nc1ccccc1)Nc1cccc(-c2ccc(C(=O)N3CCN4CCC3CC4)o2)c1 | 125 to 130 °C
Cc1ccc2nc(NC(=O)c3ccc(C(C)(C)CCc4nnn[nH]4)cc3)cn2c1 | 245 to 246 °C
NS(=O)(=O)c1ccc(-c2c(-c3ccccc3)noc2CCO)cc1 | 186 to 190 °C
O=c1[nH]c2ccsc2[nH]c1=O | > 340 °C
Cc1cc2c(Cl)c([N+](=O)[O-])cnc2s1 | 96 to 98 °C
O=C(c1cc(O)ccc1Nc1ccncc1)N1CCCCC1 | 242 to 243 °C
CCCCCOc1ccc2cc(CC[C@@](C)(N)COP(=O)(O)O)ccc2c1 | 266 to 267 °C
CCOC(=O)[C@H](CSCc1ccc(C)c(C)c1)NC(=O)C(CSC(C)=O)Cc1ccccc1 (stereo partly drawn) | 51 to 55 °C

SMILES | melting point
CCCCCCCCCCCCCCCCc1cc(OC)nc(N(C)C)n1 | 49 to 50 °C
CCSc1cc(C(C)C)ccc1N(CC)c1nc(C)cc(C)n1 | 128 to 130 °C
CC1(C)OC(=O)Nc2c(F)cc(-c3ccc(F)c(Cl)c3)cc21 | 246 to 248 °C
ClCc1coc(C=C(c2ccccc2)c2ccccc2)n1 | 107 to 108 °C
CCN(CC)c1nc2cc(C)nn2c2c1cnc1c2cnn1CC | 106 to 108 °C
CC1(C)CC(OC(=O)c2ccccc2)CC(C)(C)N1OC(N)=O | 148 to 149 °C
CC(C)c1cccc(C(C)C)c1NC(=O)CSCC(=O)O | 168 to 169 °C
CCCc1nc2c(N)nc3cc(-c4cccc(NC(C)=O)c4)ccc3c2s1 | 173 to 176 °C
CCNc1ccc(C(=O)Nc2ccc(OC)cc2)c(NC(=O)c2ccc(C(C)(C)C)cc2)c1 | 205 to 208 °C
CC(C)Oc1ccc([N+](=O)[O-])cc1NC(=O)Nc1cccnc1 | 231 to 232 °C
CCOC(=O)c1c(Nc2cccc(SC)c2)n[nH]c1C | 192 to 194 °C
CN(C)C=Cc1ncc([N+](=O)[O-])n1CCO | 155 to 157 °C
CCn1c(=O)n(Cc2ccccc2)c(=O)c2c(Cl)cc(Cl)cc21 | 78 to 82 °C
CC(C)C(=O)O[C@H]1[C@H](C)OC(=O)[C@@H](NC(=O)OC(C)(C)C)COC(=O)[C@@H]1CC(=O)O | 164 to 167 °C
NCC1Cc2cc(F)cc(-c3cc(Cl)ccc3Cl)c2O1 (stereo not drawn) | 165 to 166 °C
NCC(=O)N[C@H]1CC[C@H](O)CC1 | 110 to 114 °C
C[C@@H]1CCC[C@H](C)N1CCNC(=O)CN1C(=O)CCC1(C)C | 94 to 94.5 °C
CCOCCOC(=O)C(=O)Nc1nc(-c2cc3ccc(O)cc3oc2=O)cs1 | 217 to 218 °C
CC(=CC(=O)Nc1ccccc1)Oc1ccccc1 | 145 °C
CN(C)C(=O)c1ccc(C(C)(C)C)c(N)c1 | 186 to 188 °C
CC(=O)N=C1C(OC(C)=O)=C(NC(C)=O)C2CC(=O)CC1C2NC(C)=O (stereo not drawn) | 174 to 176 °C
O=C(O)C(=O)CC(=O)c1cn(Cc2ccc(F)cc2)c2ccccc12 | 161 to 162 °C
COc1c(Cc2ccccc2)cc(S(N)(=O)=O)c2ccccc12 | 159 to 161 °C
CCCNc1cccc2c1C(=O)c1cccc(NCCC)c1C2=O | 153 to 154 °C
CCN(CC)C(=O)c1nc(/C=C/c2ccc([N+](=O)[O-])o2)no1 | 118 to 119 °C
